Experimental data reported in US10227323B2, “Glucosylceramide synthase inhibitors for the treatment of diseases” (BIOMARIN PHARMACEUTICAL INC., priority 2013, dated 2019).
Like-named read-outs stand apart in the source and are kept apart here.

Target: T1, GCS (Canis lupus familiaris, UniProt A0A8I3MXG6)
T1 sequence (A0A8I3MXG6 1-394): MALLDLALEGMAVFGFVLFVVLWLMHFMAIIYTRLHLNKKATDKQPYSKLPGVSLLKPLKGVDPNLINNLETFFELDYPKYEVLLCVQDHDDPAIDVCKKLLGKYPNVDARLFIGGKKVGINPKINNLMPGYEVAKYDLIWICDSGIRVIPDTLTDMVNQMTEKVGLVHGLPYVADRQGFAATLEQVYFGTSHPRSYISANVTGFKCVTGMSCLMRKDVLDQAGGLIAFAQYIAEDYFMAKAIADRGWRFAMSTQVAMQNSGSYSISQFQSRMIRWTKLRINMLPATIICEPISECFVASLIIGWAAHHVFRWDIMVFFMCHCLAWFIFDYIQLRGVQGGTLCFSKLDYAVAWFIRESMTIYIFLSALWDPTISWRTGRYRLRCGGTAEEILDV
Assay: Assay 1: GCS Enzymatic Assay (MDCK cell lysate, C6-NBD-Ceramide, LC/MS)
Assay type: biochemical, canine
Conditions: for IC50: read-out: IC50 (nM) generated from Assay 1
Description: This assay was modified based on the study by Larsen et al. (J. Lipid Res. 2011, 53, 282). Madin-Darby canine kidney (MDCK) cell lysate was prepared using M-PER Mammalian Protein Extraction Reagent (Thermal Scientific) in the presence of a protease inhibitor cocktail (Roche). Protein concentration was determined using BCA assay kit (Pierce). Sixty micrograms of MDCK cell lysate was incubated with various concentrations of a compound described herein from 0.001 μM-10 μM, respectively, in 100 mM Tris buffer (pH 7.5) containing 10 mM MgCl2, 1 mM dithiothreitol, 1 mM EGTA, 2 mM NAD, 100 μM UDP-glucose, 10 μM C6-NBD-Ceramide (Matreya LLC, Pleasant Gap, Pa.), 35 μM dioleoylphosphatidylcholine and 5 μM sulfatide (Sigma) in a final reaction volume of 100 μL at 37° C. for 1 hour. 0.1% DMSO was used as mock treatment or control. The reaction was terminated by adding 100 μL acetonitrile solution and subjected to LC/MS analysis.
The quantitative analysis of NBD-Ceramide and glucosylceramide was performed on a Shimadzu ultra-fast liquid chromatography (Shimadzu, Japan) coupled with API 4000 triple quadrupole mass spectrometer (Applied Biosystems, Concord, Ontario, Canada). Sample separation was conducted on a Waters Xbridge™ BEH130 C18, 100 mm×4.6 mm i.d, 3.5 μm (Milford, Mass., USA). The mobile phase consisted of water and acetonitrile supplemented with 0.1% formic acid (v/v). The flow rate was 1.0 mL/min. The initial mobile phase was 20% acetonitrile and was ramped in a linear fashion to 50% acetonitrile in 0.4 min. From 0.4 to 1.5 min, the gradient was ramped to 98% acetonitrile, and then was held at […] until 8.0 min. Acetonitrile was reset to 20% in 1.5 min, and maintained until 10.0 min. The total run time was 10.0 min. The MS/MS detection was performed in ESI positive mode. The mass transition of NBD-Ceramide was m/z 576.36→558.40 under the collision energy of 15 V, and the mass transition of glucosylceramide was m/z 738.35→558.40 under 21V collision energy. The cell lysate was diluted with equal volume of acetonitrile. Aliquots of 50 μL diluted samples were added to 1.5 mL tubes, and 100 μL of acetonitrile containing internal standard (100 ng/mL tolbutamide) were added for protein precipitation. The mixture were vortexed and then centrifuged at 13000 rpm for 10 min. 70 μL of supernatant were mixed with 140 μL of H2O and the final solution were injected for LC/MS/MS analysis and IC50's and/or percent inhibitions calculated.

[1] = Table 1, values marked *, MDCK cell lysate

IC50 (Table 1, MDCK cell lysate) [nM] | SMILES | % inhibition generated from Assay 1 [1] | also measured
< 50 | O=C(N[C@H](CN1CCCC1)[C@H](O)c1ccc(OC2CCOC2)c(Cl)c1)C(F)(F)c1cc2cc(Cl)ccc2o1 (single isomer, unassigned) [Compound 47] | – | –
– | CC(C)Oc1ccc(C(O)[C@@H](CN2CCCC2)NC(=O)C(F)(F)c2cc3cc(Cl)ccc3o2)cn1 (stereo in doubt) [Compound 80, 2-(5-chlorobenzofuran-2-yl)-2,2-difluoro-N-((1S,2R)-1-hydroxy-1-(6-isopropoxypyridin-3-yl)-3-(pyrrolidin-1-yl)propan-2-yl)acetamide] | – | IC50 (Table 2, data without asterisk): 50 to 5000 nM
– | CC(C)Oc1cc(C(O)[C@@H](CN2CCCC2)NC(=O)C(F)(F)c2cc3cc(Cl)ccc3o2)ccn1 (stereo in doubt) [Compound 103, 2-(5-chlorobenzofuran-2-yl)-2,2-difluoro-N-((1S,2R)-1-hydroxy-1-(2-isopropoxypyridin-4-yl)-3-(pyrrolidin-1-yl)propan-2-yl)acetamide] | – | % inhibition generated from Assay 1 (Table 2, data marked by *): B* (the compound had a % inhibition of greater than or equal to about 3% but less than about 50%)
– | O=C(N[C@H](CN1CCC1)C(O)c1cc(F)c2c(c1)OCCO2)C(F)(F)CCc1ccc2ccccc2c1 (stereo in doubt) [Compound 113, N-((1S,2R)-3-(azetidin-1-yl)-1-(8-fluoro-2,3-dihydrobenzo[b][1,4]dioxin-6-yl)-1-hydroxypropan-2-yl)-2,2-difluoro-4-(naphthalen-2-yl)butanamide] | – | % inhibition generated from Assay 1 (Table 2, data marked by *): B* (the compound had a % inhibition of greater than or equal to about 3% but less than about 50%)
– | CC1(C)CCc2cc(C(O)[C@@H](CN3CCCC3)NC(=O)C(F)(F)CCc3ccc4ccccc4c3)ccc2O1 (stereo in doubt) [Compound 117, N-((1S,2R)-1-(2,2-dimethylchroman-6-yl)-1-hydroxy-3-(pyrrolidin-1-yl)propan-2-yl)-2,2-difluoro-4-(naphthalen-2-yl)butanamide] | – | % inhibition generated from Assay 1 (Table 2, data marked by *): B* (the compound had a % inhibition of greater than or equal to about 3% but less than about 50%)
– | O=C(N[C@H](CN1CCCC1)C(O)c1ccc(N2CCOCC2)c(Cl)c1)C(F)(F)CCc1ccc2ccccc2c1 (stereo in doubt) [Compound 124, N-((1S,2R)-1-(3-chloro-4-morpholinophenyl)-1-hydroxy-3-(pyrrolidin-1-yl)propan-2-yl)-2,2-difluoro-4-(naphthalen-2-yl)butanamide] | – | % inhibition generated from Assay 1 (Table 2, data marked by *): B* (the compound had a % inhibition of greater than or equal to about 3% but less than about 50%)
< 50 | O=C(N[C@H](CN1CCCC1)[C@H](O)c1ccc2c(c1)OCCO2)C(F)(F)C1Cc2ccccc2C1 [Compound 1, 2-(2,3-dihydro-1H-inden-2-yl)-N-((1R,2R)-1-(2,3-dihydrobenzo[b][1,4]dioxin-6-yl)-1-hydroxy-3-(pyrrolidin-1-yl)propan-2-yl)-2,2-difluoroacetamide] | – | –
50 to 5000 | O=C(N[C@H](CN1CCCC1)[C@H](O)c1ccc2c(c1)OCCO2)C(F)(F)c1ccc2c(c1)OCCO2 [Compound 2, 2-(2,3-dihydrobenzo[b][1,4]dioxin-6-yl)-N-((1R,2R)-1-(2,3-dihydrobenzo[b][1,4]dioxin-6-yl)-1-hydroxy-3-(pyrrolidin-1-yl)propan-2-yl)-2,2-difluoroacetamide] | – | –
< 50 | O=C(N[C@H](CN1CCCC1)[C@H](O)c1ccc2c(c1)OCCO2)C(F)(F)c1cc2cc(Cl)ccc2s1 [Compound 3, 2-(5-chlorobenzo[b]thiophen-2-yl)-N-((1R,2R)-1-(2,3-dihydrobenzo[b][1,4]dioxin-6-yl)-1-hydroxy-3-(pyrrolidin-1-yl)propan-2-yl)-2,2-difluoroacetamide] | – | –
– | COc1ccc(C(O)[C@@H](CN2CCCC2)NC(=O)C(F)(F)c2cc3cc(Cl)ccc3s2)cc1F (stereo partly drawn) [Compound 4, 2-(5-chlorobenzo[b]thiophen-2-yl)-2,2-difluoro-N-((2R)-1-(3-fluoro-4-methoxyphenyl)-1-hydroxy-3-(pyrrolidin-1-yl)propan-2-yl)acetamide] | B* (the compound had a % inhibition of greater than or equal to about 3% but less than about 50%) | –
< 50 | COc1ccc([C@H](O)[C@@H](CN2CCCC2)NC(=O)C(F)(F)C2Cc3ccccc3C2)cc1F [Compound 5, 2-(2,3-dihydro-1H-inden-2-yl)-2,2-difluoro-N-((1S,2R)-1-(3-fluoro-4-methoxyphenyl)-1-hydroxy-3-(pyrrolidin-1-yl)propan-2-yl)acetamide] | – | –
50 to 5000 | COc1ccc(C(O)[C@@H](CN2CCCC2)NC(=O)C(F)(F)C2Cc3ccccc3C2)cc1F (stereo partly drawn) [Compound 5A, 2-(2,3-dihydro-1H-inden-2-yl)-2,2-difluoro-N-((2R)-1-(3-fluoro-4-methoxyphenyl)-1-hydroxy-3-(pyrrolidin-1-yl)propan-2-yl)acetamide] | – | –
– | COc1ccc([C@@H](O)[C@@H](CN2CCCC2)NC(=O)C(F)(F)C2Cc3ccccc3C2)cc1F [Compound 5B, 2-(2,3-dihydro-1H-inden-2-yl)-2,2-difluoro-N-((1R,2R)-1-(3-fluoro-4-methoxyphenyl)-1-hydroxy-3-(pyrrolidin-1-yl)propan-2-yl)acetamide] | B* (the compound had a % inhibition of greater than or equal to about 3% but less than about 50%) | –
– | O=C(N[C@H](CN1CCCC1)[C@H](O)c1ccc2c(c1)OCCO2)C(F)(F)c1nc2cc(Cl)ccc2s1 [Compound 6, 2-(5-chlorobenzo[d]thiazol-2-yl)-N-((1R,2R)-1-(2,3-dihydrobenzo[b][1,4]dioxin-6-yl)-1-hydroxy-3-(pyrrolidin-1-yl)propan-2-yl)-2,2-difluoroacetamide] | B* (the compound had a % inhibition of greater than or equal to about 3% but less than about 50%) | –
< 50 | O=C(N[C@H](CN1CCCC1)[C@H](O)c1ccc2c(c1)OCCO2)C(F)(F)C1Cc2cc(Cl)c(Cl)cc2C1 [Compound 7, 2-(5,6-dichloro-2,3-dihydro-1H-inden-2-yl)-N-((1R,2R)-1-(2,3-dihydrobenzo[b][1,4]dioxin-6-yl)-1-hydroxy-3-(pyrrolidin-1-yl)propan-2-yl)-2,2-difluoroacetamide] | – | –
– | COc1ccc(F)c([C@@H](O)[C@@H](CN2CCCC2)NC(=O)C(F)(F)C2Cc3ccccc3C2)c1 [Compound 8, 2-(2,3-dihydro-1H-inden-2-yl)-2,2-difluoro-N-((1R,2R)-1-(2-fluoro-5-methoxyphenyl)-1-hydroxy-3-(pyrrolidin-1-yl)propan-2-yl)acetamide] | B* (the compound had a % inhibition of greater than or equal to about 3% but less than about 50%) | –
– | COc1ccc(F)c([C@H](O)[C@@H](CN2CCCC2)NC(=O)C(F)(F)C2Cc3ccccc3C2)c1 [Compound 8J, 2-(2,3-dihydro-1H-inden-2-yl)-2,2-difluoro-N-((1S,2R)-1-(2-fluoro-5-methoxyphenyl)-1-hydroxy-3-(pyrrolidin-1-yl)propan-2-yl)acetamide] | B* (the compound had a % inhibition of greater than or equal to about 3% but less than about 50%) | –
– | Cn1c(C(F)(F)C(=O)N[C@H](CN2CCCC2)[C@H](O)c2ccc3c(c2)OCCO3)nc2cc(Cl)ccc21 [Compound 10, 2-(5-chloro-1-methyl-1H-benzo[d]imidazol-2-yl)-N-((1R,2R)-1-(2,3-dihydrobenzo[b][1,4]dioxin-6-yl)-1-hydroxy-3-(pyrrolidin-1-yl)propan-2-yl)-2,2-difluoroacetamide] | B* (the compound had a % inhibition of greater than or equal to about 3% but less than about 50%) | –
